The term inhibition denotes the drop in the measured response relative to a control, in per cent. The low end stands for little suppression, the high end for strong suppression.

One experiment has as its system IgE. The experiment is described as follows: Determination of Igs produced in in vitro culture: inhibition of IgE secreted by spleen cells (adoptive secondary immune response to DNP-As), ELISA. Type of experiment: cell-based, BALB/c mice. Conditions: Mus musculus, 96 h, 4 days culture; for inhibition at 5 µg/mL: 5.0 μg/ml; for inhibition at 2.5 µg/mL: 2.5 μg/ml; for inhibition at 40 µg/mL: 40.0 μg/ml; for inhibition at 1 µg/mL: 1.0 μg/ml. On the procedure: (§1) Determination of Igs produced in in vitro culture
(§2) BALB/c mice were immunized intraperitoneally with 5 μg of DNP-As adsorbed in 4 mg aluminum hydroxide gel. 4 weeks after the immunization, the spleens were excised from the mice and 5×10^7 spleen cells were transferred intravenously into the recipient mice which had been exposed to 600 rad of X-ray irradiation. Immediately after cell transfer, the recipients were then immunized intraperitoneally with 5 μg of DNP-As adsorbed in 4 mg aluminum hydroxide gel to induce adoptive secondary immune response. Further 4 weeks after the immunization of recipients, the spleens were excised from them and the spleen cell suspensions 5×10^6 cells/ml were cultured with or without a compound to be tested in 96-well micro plates at 37° C. for 4 days. IgE and IgG secreted into the culture supernatant was each determined correspondingly by ELISA and the inhibitory effect was calculated according to the following equation. [formula]
In general terms: In an ELISA, binding on a coated surface is turned into a signal by an enzyme label.

The next experiment has as its system IgG. The experiment is described as follows: Determination of Igs produced in in vitro culture: inhibition of IgG secreted by spleen cells (adoptive secondary immune response to DNP-As), ELISA. Type of experiment: cell-based, BALB/c mice. Conditions: 4 days culture; for inhibition at 5 µg/mL / inhibition at 2.5 µg/mL / inhibition at 40 µg/mL / inhibition at 1 µg/mL: Mus musculus, 96 h; for inhibition at 5 µg/mL: 5.0 μg/ml; for inhibition at 2.5 µg/mL: 2.5 μg/ml; for inhibition at 40 µg/mL: 40.0 μg/ml. On the procedure: as §1, §2

As to `CSc1c(C#N)c(=O)n2ccccc2c1C(=O)OC1CCCC1` [S-12, Cyclopentyl 3-cyano-2-methylthio-4H-quinolizin-4-one-1-carboxylate], the inhibition at 5 µg/mL is 65% in the experiment with IgE and 32% in the experiment with IgG.

As to `CSc1c(C#N)c(=O)n2ccccc2c1C(=O)Cc1cccc(C)c1` [S-97, 3-Cyano-1-(3-methylphenylacetyl)-2-methylthio-4H-quinolizin-4-one], the inhibition at 2.5 µg/mL in the experiment on IgE is 46%; with IgG, 18%.

As to `CSc1c(C#N)c(=O)n2ccccc2c1C(=O)Cc1ccc(C)c(C)c1` [S-101, 3-Cyano-1-(3,4-dimethylphenylacetyl)-2-methylthio-4H-quinolizin-4-one], the inhibition at 40 µg/mL in the experiment on IgE stood at 58%; with IgG it was 13%.

In the case of `CCCOC(=O)c1c(SC)c(C#N)c(=O)n2ccccc12` [S-7, Propyl 3-cyano-2-methylthio-4H-quinolizin-4-one-1-carboxylate], the results for the inhibition at 40 µg/mL in the experiment with IgE and with IgG were 52% and 24%, respectively.

Take `CSc1c(C#N)c(=O)n2ccccc2c1C(=O)OCc1cccc2ccccc12` [S-42, 1'-Naphthylmethyl 3-cyano-2-methylthio-4H-quinolizin-4-one-1-carboxylate]: the values for the inhibition at 1 µg/mL in the experiment on IgE and in the experiment on IgG (1.0 μg/ml) were 75% and 43%, respectively.

With `CSc1c(C#N)c(=O)n2ccccc2c1C(=O)N(Cc1ccccc1)Cc1ccccc1` [S-60, 3-Cyano-N,N-dibenzyl-2-methylthio-4H-quinolizin-4-one-1-carboxamide], the inhibition at 1 µg/mL in the experiment on IgE stood at 58%; in the experiment on IgG (1.0 μg/ml), 25%.

In the case of `CSc1c(C#N)c(=O)n2ccc(C)cc2c1C(=O)OC1CCCCC1` [S-18, Cyclohexyl 3-cyano-8-methyl-2-methylthio-4H-quinolizin-4-one-1-carboxylate], the inhibition at 2.5 µg/mL in the experiment with IgE was found to be 54%; in the experiment on IgG, 34%.

In the experiment with IgE, `CSc1c(C#N)c(=O)n2cccc(C)c2c1C(=O)N1CCC(c2ccccc2)CC1` (single isomer, unassigned) [S-81A, 3-Cyano-9-methyl-2methylthio-1-(4-phenylpiperidinocarbonyl)-4H-quinolizin-4-one] gave an inhibition at 1 µg/mL of 46%. In addition, in the experiment with IgG (1.0 μg/ml), the “Inhibition % of IgG” value came out at 17%.

In the case of `CCC(C)OC(=O)c1c(SC)c(C#N)c(=O)n2ccccc12` (stereo not shown) [S-10, 1'-Methylpropyl 3-cyano-2-methylthio-4H-quinolizin-4-one-1-carboxylate], the inhibition at 2.5 µg/mL with IgE was found to be 48%; with IgG, 27%.

Turning to `CSc1c(C#N)c(=O)n2ccccc2c1C(=O)Cc1ccc(C)cc1C` [S-100, 3-Cyano-1-(2,4dimethylphenylacetyl)-2-methylthio-4H-quinolizin-4-one], the inhibition at 2.5 µg/mL amounted to 63% in the experiment on IgE and 34% in the experiment with IgG.

As for `CSc1c(C#N)c(=O)n2ccccc2c1C(=O)N1CCCCC1` [S-79, 3-Cyano-2-methylthio-1-piperidinocarbonyl-4H-quinolizin-4-one], the inhibition at 40 µg/mL in the experiment with IgE turned out to be 59%; in the experiment on IgG, 13%.

Regarding `CSc1c(C#N)c(=O)n2ccccc2c1C(=O)OC/C=C/c1ccccc1` [S-47, trans-Cinnamyl 3-cyano-2-methylthio-4H-quinolizin-4-one-1-carboxylate], the inhibition at 40 µg/mL in the experiment on IgE was 60%; in the experiment with IgG it was 28%.

As to `CSc1c(C#N)c(=O)n2ccccc2c1C(=O)OC1C2CC3CC(C2)CC1C3` (stereo not shown) [S-21, 2'-Adamantyl 3-cyano-2-methylthio-4H-quinolizin-4-one-1-carboxylate], the inhibition at 5 µg/mL was 70% in the experiment on IgE and 47% in the experiment with IgG.

On to `CSc1c(C#N)c(=O)n2ccccc2c1C(=O)OC1CCCCCCC1` [S-20, Cyclooctyl 3-cyano-2-methylthio-4H-quinolizin-4-one-1-carboxylate], for which the inhibition at 5 µg/mL was 84% in the experiment on IgE and 52% with IgG.
